From ChEMBL document CHEMBL5149963, “Xanthenes in Medicinal Chemistry - Synthetic strategies and biological activities” (Eur J Med Chem, 2021)
In brackets after ≈: the same amount, converted by molar mass.

Experiments:
HepG2 = assay: Antiproliferative activity against human HepG2 cells assessed as reduction in cell viability measured after 48 hrs by trypan blue staining method; format: functional, cell-based; conditions: HepG2, 48 h
SW480 = assay: Antiproliferative activity against human SW480 cells assessed as reduction in cell viability measured after 48 hrs by trypan blue staining method; format: functional, cell-based; conditions: SW480, 48 h
[1] = Activation of AMPK in rat L6 cells assessed as increase in AMPK phosphorylation; format: cell-based
MCF7 = assay: Cytotoxicity against human MCF7 cells assessed as reduction in cell viability by MTT assay; format: functional, cell-based
MDA-MB-231 = assay: Cytotoxicity against human MDA-MB-231 cells assessed as reduction in cell viability by MTT assay; format: functional, cell-based
Bacillus subtilis = assay: Antibacterial activity against Bacillus subtilis ATCC 23857 by disc diffusion assay; format: functional
NB-4 = assay: Antiproliferative activity against human NB-4 cells; format: functional, cell-based
[2] = Antioxidant activity assessed as DPPH radical scavenging activity at 50 to 250 microg/ml incubated for 20 mins relative to control; format: functional; conditions: dose 50-250 µg/ml
[3] = Antioxidant activity assessed as ABTS radical scavenging activity at 50 to 250 microg/ml incubated for 7 mins relative to control; format: functional; conditions: dose 50-250 µg/ml
Beta-secretase 1 = Beta-secretase 1 (Homo sapiens, UniProt P56817); assay: Inhibition of BACE1 (unknown origin)
Sequence of Beta-secretase 1 (P56817 whole entry): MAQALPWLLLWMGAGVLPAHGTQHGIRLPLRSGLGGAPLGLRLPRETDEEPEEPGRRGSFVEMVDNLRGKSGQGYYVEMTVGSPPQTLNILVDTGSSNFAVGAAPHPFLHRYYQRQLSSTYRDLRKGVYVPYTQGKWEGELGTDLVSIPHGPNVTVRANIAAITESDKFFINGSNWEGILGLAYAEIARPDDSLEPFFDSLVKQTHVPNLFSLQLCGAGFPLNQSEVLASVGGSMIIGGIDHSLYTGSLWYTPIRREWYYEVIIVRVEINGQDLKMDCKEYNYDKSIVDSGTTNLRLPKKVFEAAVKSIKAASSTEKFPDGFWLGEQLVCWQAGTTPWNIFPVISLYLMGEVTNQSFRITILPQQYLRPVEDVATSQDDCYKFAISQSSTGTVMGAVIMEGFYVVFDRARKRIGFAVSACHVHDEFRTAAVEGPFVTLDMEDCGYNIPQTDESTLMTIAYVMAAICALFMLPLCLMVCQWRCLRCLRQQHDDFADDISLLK

Bel-7402 [4] = assay: Cytotoxicity against human Bel-7402 cells assessed as reduction in cell viability measured after 48 hrs by MTT assay; format: functional, cell-based; conditions: Bel-7402, 48 h
HeLa [5] = assay: Cytotoxicity against human HeLa cells assessed as reduction in cell viability measured after 48 hrs by MTT assay; format: functional, cell-based
A549 = assay: Cytotoxicity against human A549 cells assessed as reduction in cell viability measured after 48 hrs by MTT assay; format: functional, cell-based; conditions: A549, 48 h
MG-63 [6] = assay: Cytotoxicity against human MG-63 cells assessed as reduction in cell viability measured after 48 hrs by MTT assay; format: functional, cell-based; conditions: MG-63, 48 h
[7] = Antioxidant activity assessed as DPPH radical scavenging activity relative to control; format: functional; design: concentration or dose not given beside the values
[8] = biological target: Glucocorticoid receptor (Homo sapiens) (UniProt P04150); assay: Binding affinity to human GR assessed as inhibition of enzyme substrate complex formation
Sequence of Glucocorticoid receptor (Homo sapiens) (P04150 whole entry): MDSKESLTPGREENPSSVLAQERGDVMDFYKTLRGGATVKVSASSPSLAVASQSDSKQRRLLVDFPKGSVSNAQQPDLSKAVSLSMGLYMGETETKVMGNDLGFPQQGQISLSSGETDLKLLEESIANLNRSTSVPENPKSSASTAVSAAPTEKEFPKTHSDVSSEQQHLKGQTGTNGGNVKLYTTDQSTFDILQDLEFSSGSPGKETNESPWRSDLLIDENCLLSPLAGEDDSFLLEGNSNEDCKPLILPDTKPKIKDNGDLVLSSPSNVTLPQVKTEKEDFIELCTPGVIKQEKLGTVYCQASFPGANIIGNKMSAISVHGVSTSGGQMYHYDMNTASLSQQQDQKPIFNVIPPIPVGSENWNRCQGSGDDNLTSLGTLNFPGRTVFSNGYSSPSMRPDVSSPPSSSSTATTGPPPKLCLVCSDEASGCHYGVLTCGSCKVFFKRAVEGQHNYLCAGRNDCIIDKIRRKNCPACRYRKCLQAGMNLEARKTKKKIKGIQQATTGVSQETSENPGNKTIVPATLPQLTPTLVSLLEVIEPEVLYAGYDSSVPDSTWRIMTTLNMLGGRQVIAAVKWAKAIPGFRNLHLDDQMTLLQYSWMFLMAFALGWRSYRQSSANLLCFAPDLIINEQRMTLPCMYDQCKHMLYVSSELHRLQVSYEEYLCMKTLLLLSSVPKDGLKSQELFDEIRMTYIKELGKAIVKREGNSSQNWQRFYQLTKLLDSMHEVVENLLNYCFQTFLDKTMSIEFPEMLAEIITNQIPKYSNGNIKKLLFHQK

Plasmodium falciparum [9] = assay: Antimalarial activity against chloroquine resistant Plasmodium falciparum K14 in human blood assessed as reduction in parasitemia measured after 42 hrs; format: functional, organism-based
Bel-7402 [10] = assay: Cytotoxicity against human Bel-7402 cells incubated for 48 hrs by MTT assay; format: functional, cell-based; conditions: Bel-7402, 48 h
HeLa [11] = assay: Cytotoxicity against human HeLa cells incubated for 48 hrs by MTT assay; format: functional, cell-based
MG-63 [12] = assay: Cytotoxicity against human MG-63 cells incubated for 48 hrs by MTT assay; format: functional, cell-based; conditions: MG-63, 48 h
SK-BR-3 = assay: Cytotoxicity against human SK-BR-3 cells incubated for 48 hrs by MTT assay; format: functional, cell-based; conditions: SK-BR-3, 48 h
Trypanosoma brucei = assay: Antiprotozoal activity against Trypanosoma brucei; format: functional; conditions: read-out: ED50 (the source's name)
Trypanosoma cruzi = assay: Antiprotozoal activity against Trypanosoma cruzi; format: functional; conditions: read-out: ED50 (the source's name)
Leishmania donovani = assay: Antiprotozoal activity against Leishmania donovani; format: functional; conditions: read-out: ED50 (the source's name)
Vaccinia virus = assay: In vivo antiviral activity against Vaccinia virus infected in mouse assessed as reduction in virus severity of virus induced tail lesion at 250 mg/kg, po measured after 24 to 48 hrs relative to control; format: functional, Orthopoxvirus vaccinia; design: scale not given: the % may be the effect or the level left; conditions: time 24-48 hrs
[13] = Cytotoxicity against ewing sarcoma cells (unknown origin); format: functional, cell-based; conditions: Ewing sarcoma cell
[14] = Cytotoxicity against neuroblastoma cells (unknown origin); format: functional, cell-based; conditions: Neuroblastoma cell
[15] = Cytotoxicity against osteosarcoma cells (unknown origin); format: functional, cell-based; conditions: Osteosarcoma cell
[16] = Cytotoxicity against rhabdomyosarcoma cells (unknown origin); format: functional, cell-based; conditions: Rhabdomyosarcoma cell
[17] = Cytotoxicity against normal foreskin fibroblast cells (unknown origin); format: toxicity, cell-based
[18] = Cytotoxicity against normal lung fibroblast cells (unknown origin); format: toxicity, cell-based
[19] = Cytotoxicity against normal primary bone marrow fibroblast cells (unknown origin); format: toxicity, cell-based
[20] = system: unidentified influenza virus; assay: Antiviral activity against influenza virus; format: functional, organism-based
[21] = system: Human immunodeficiency virus; assay: Antiviral activity against Human immunodeficiency virus; format: functional, organism-based; conditions: Human immunodeficiency virus 1
[22] = system: Vesicular stomatitis virus; assay: Antiviral activity against Vesicular stomatitis virus; format: functional, organism-based
Plasmodium falciparum [23] = assay: Antimalarial activity against chloroquine resistant Plasmodium falciparum K1 in human erythrocytes; format: functional, organism-based; conditions: K1, Erythrocyte
CHO = assay: Cytotoxicity against CHO cells measured after 48 hrs by MTT assay; format: toxicity, cell-based, Cricetulus griseus; conditions: chinese hamster

COC(=O)c1cc2ccc(O)c3c2c(c1C(=O)OC)-c1cc(O)c(O)cc1O3
IC50 (HepG2): 34.8 µM
IC50 (SW480): 32.9 µM

O=C(Nc1cccc([N+](=O)[O-])c1)NC(NC(=O)C1c2ccccc2Oc2ccccc21)C(Cl)(Cl)Cl (centres undefined)
EC50 [1]: 1.5 µM

CC/C(=C1\c2ccccc2Oc2cc(OCCN3CCCC3)ccc21)c1ccccc1
IC50 (MCF7): 12.4 µM
IC50 (MDA-MB-231): 25.4 µM

O=C(N[C@H](CO)[C@H](O)c1ccc([N+](=O)[O-])cc1)C(Cl)Cl [CHLORAMPHENICOL]
MIC (Bacillus subtilis): 68.7 µg/mL (≈ 213 µM)

c1ccc(-c2ccc3c(c2)C(c2ccccc2)c2c(ccc4ccccc24)O3)cc1 (centres undefined)
IC50 (NB-4): > 50 µM

CNC(=O)c1ccc2c3c(ccc2c1)Oc1ccc2cc(C(=O)NC)ccc2c1C3c1ccc(F)cc1
IC50 (NB-4): 0.52 µM

COc1ccc(C2c3c(ccc4ccccc34)Oc3ccc4ccccc4c32)cc1OC
Activity [2]: 52.6%
Activity [3]: 70.8%

CC(C)(C)C(=O)N[C@H]1CC[C@@H]2Oc3ccc(-c4cncc(F)c4)cc3C3(CSC(N)=N3)[C@H]2C1 (some centres undefined)
IC50 (Beta-secretase 1): 0.0011 µM

Fc1ccc(C2c3cc(-c4ccccc4)ccc3Oc3ccc4ccccc4c32)cc1 (centres undefined)
IC50 (NB-4): > 50 µM

CC(=O)C1C(=O)C[C@@H]2CC[C@@]13c1c(cccc12)Oc1ccc2ccccc2c13 (some centres undefined)
IC50 (Bel-7402 [4]): 17.1 µM
IC50 (HeLa [5]): 30.1 µM
IC50 (A549): 54.9 µM
IC50 (MG-63 [6]): 82.5 µM

O=C1OC(=O)c2c1cc1ccc(O)c3c1c2-c1cc(O)c(O)cc1O3
IC50 (HepG2): > 100 µM
IC50 (SW480): > 100 µM

c1ccc(C2c3c(ccc4ccccc34)Oc3ccc4ccccc4c32)cc1
Activity [2]: 31.1%
Activity [3]: 63.5%

N#Cc1cccc(NC(=O)NC(NC(=O)C2c3ccccc3Oc3ccccc32)C(Cl)(Cl)Cl)c1 (centres undefined)
EC50 [1]: 1.5 µM

Cc1ccc(C2c3cc(-c4ccccc4)ccc3Oc3ccc4ccccc4c32)cc1 (centres undefined)
IC50 (NB-4): > 50 µM

O=C(O)/C=C/c1ccc(O)c(O)c1
Activity [7]: 58.6%

COc1cc(C2c3c(ccc4ccccc34)Oc3ccc4ccccc4c32)ccc1O
Activity [2]: 86.8%
Activity [3]: 83.1%

O=C(O)CCc1c2ccc(=O)cc-2oc2cc(O)ccc12
Kis [8]: 27 µM

COC(=O)[C@@]1(O)C[C@@H](OC(=O)c2c(C(=O)O[C@@H]3C[C@](O)(C(=O)OC)C[C@@H]4OC(C)(C)O[C@H]43)cc3ccc(O)c4c3c2-c2cc(O)c(O)cc2O4)[C@@H]2OC(C)(C)O[C@@H]2C1
Activity [7]: 28.1%

CCOc1ccc(N2C(=O)C3(c4ccccc4Oc4ccccc43)C23c2ccccc2-c2ccccc23)cc1
IC50 (Plasmodium falciparum [9]): 5 µM

COC12C(=O)C=Cc3cc(Br)cc(c31)Oc1ccc3cc(Br)ccc3c12 (centres undefined)
IC50 (Bel-7402 [10]): 42.3 µM
IC50 (HeLa [11]): 28.1 µM
IC50 (MG-63 [12]): 39.2 µM
IC50 (SK-BR-3): 14.3 µM

CC(=O)Oc1cc2c(cc1OC(C)=O)-c1c(C(=O)OCCc3ccccc3)c(C(=O)OCCc3ccccc3)cc3ccc(OC(C)=O)c(c13)O2
IC50 (HepG2): 26.7 µM
IC50 (SW480): 3.21 µM

CN(C)CCCNC(=O)c1cc(C(C)(C)C)cc2c1Oc1c(C(=O)NCCCN(C)C)cc(C(C)(C)C)cc1C2(C)C
EC50 (Trypanosoma brucei): 0.02 µM
EC50 (Trypanosoma cruzi): 0.48 µM
EC50 (Leishmania donovani): 0.55 µM

CNC(=O)c1ccc2c3c(ccc2c1)Oc1ccc2cc(C(=O)NC)ccc2c1C3c1ccc(Cl)cc1
IC50 (NB-4): 0.76 µM

O=C1C=Cc2cccc3c2C1c1c(ccc2ccccc12)O3 (centres undefined)
IC50 (Bel-7402 [10]): 17.6 µM
IC50 (HeLa [11]): 18.5 µM
IC50 (MG-63 [12]): 20.1 µM
IC50 (SK-BR-3): 15.5 µM

Cc1ccc(O)c(COCc2cc(C)cc3c2Oc2ccc(C)cc2C3)c1
MIC (Bacillus subtilis): 36.1 µg/mL (≈ 100 µM)

Cc1cc(C(C)(C)C)c(O)c(C(C)(C)C)c1
Activity [7]: 3.6%

COc1ccc(C2c3c(ccc4ccccc34)Oc3ccc4ccccc4c32)cc1
Activity [2]: 47.1%
Activity [3]: 67.5%

CN(C)CC(=O)c1ccc2c(c1)Cc1cc(C(=O)CN(C)C)ccc1O2
Activity (Vaccinia virus): 31%

CN(C)C(=N)NC(=N)N [METFORMIN]
EC50 [1]: 10000 µM

COC(=O)c1cc2ccc(OC(C)=O)c3c2c(c1C(=O)OC)-c1cc(OC(C)=O)c(OC(C)=O)cc1O3
IC50 (HepG2): 28.6 µM
IC50 (SW480): 25.5 µM

O=C(O)c1c(Cl)c(Cl)c(Cl)c(Cl)c1-c1c2cc(I)c(=O)c(I)c-2oc2c(I)c(O)c(I)cc12 [ROSE BENGAL SODIUM]
IC50 [13]: 45 µM
IC50 [14]: 73 µM
IC50 [15]: 75 µM
IC50 [16]: 51 µM
IC50 [17]: 73 µM
IC50 [18]: 75 µM
IC50 [19]: 136 µM
IC50 [20]: 0.3 µM
IC50 [21]: 0.05 µM
IC50 [22]: 0.008 µM

O=C(OCCc1ccccc1)c1cc2ccc(O)c3c2c(c1C(=O)OCCc1ccccc1)-c1cc(O)c(O)cc1O3
IC50 (HepG2): 4.76 µM
IC50 (SW480): 2.57 µM
Activity [7]: 3.6%

COc1cc2c(cc1OC)-c1c(C(=O)OCCc3ccccc3)c(C(=O)OCCc3ccccc3)cc3ccc(OC)c(c13)O2
IC50 (HepG2): > 100 µM
IC50 (SW480): > 100 µM

CCOC12C(=O)C(CO)=Cc3cc(CO)cc(c31)Oc1c(CO)cc3cc(CO)ccc3c12 (centres undefined)
IC50 (Bel-7402 [10]): 10.1 µM
IC50 (HeLa [11]): 9.4 µM
IC50 (MG-63 [12]): 25.2 µM
IC50 (SK-BR-3): 6.2 µM

CN(C)CCCNCC1c2ccccc2Oc2ccccc21
IC50 (Plasmodium falciparum [23]): 0.78 µM
IC50 (CHO): 331.1 µM

Cc1c(C)c2c(c(C)c1O)CCC(C)(CCCC(C)CCCC(C)CCCC(C)C)O2 (racemic)
Activity [7]: 61.1%

Clc1ccc(C2c3cc(-c4ccccc4)ccc3Oc3ccc4ccccc4c32)cc1 (centres undefined)
IC50 (NB-4): > 50 µM

Oc1ccc(C2c3c(ccc4ccccc34)Oc3ccc4ccccc4c32)cc1
Activity [2]: 53.1%
Activity [3]: 73.2%

COC(=O)c1cc2ccc(OC)c3c2c(c1C(=O)OC)-c1cc(OC)c(OC)cc1O3
IC50 (HepG2): > 100 µM
IC50 (SW480): > 100 µM

O=C1C(CO)=Cc2cccc3c2C1(O)c1c(ccc2ccccc12)O3 (centres undefined)
IC50 (Bel-7402 [10]): 45.2 µM
IC50 (HeLa [11]): 68.8 µM
IC50 (MG-63 [12]): 54.8 µM
IC50 (SK-BR-3): 26.2 µM

O=[As][As+](=O)[O-] (centres undefined) [ARSENIC TRIOXIDE]
IC50 (NB-4): 5.31 µM

COCc1cc(C)cc2c1Oc1ccc(C)cc1C2
MIC (Bacillus subtilis): 25.4 µg/mL (≈ 99.9 µM)

Cc1cc2nc3cc(C)c(N)cc3[n+](-c3ccccc3)c2cc1N
Kis [8]: 453 µM
